Results on 49 compounds are retold here after PubChem BioAssay AID488868 (Broad Institute, 2010).

The source made the active and inactive calls.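 How the source made its calls: active means compounds lowering nitrite signal whose fitted AC50 is at most ten times their top tested dose; inconclusive means flat drop of 30 to 70 percent, or poor curve fit; inactive means the rest.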

Assay [1] can be described thus: inhibitors of cytokine-induced nitrite release, dose response, cell-based, Griess absorbance, INS-1E, dry powder, set 2 (AID 488868). To be noted: INS-1E cytokine-induced nitrite, Griess absorbance, 48 h. A general note: Griess reagent forms a coloured azo dye with nitrite.
In assay [2] the test system is INS-1E cytokine-induced nitrite, Griess absorbance, 48 h. The description is as above.

Usually AC50 stands for the midpoint of the concentration-response curve, whichever way the signal moves.

Take `C[C@@H]1CN([C@@H](C)CO)C(=O)c2cccc(NC(=O)Nc3cccc4ccccc34)c2O[C@H]1CN(C)S(=O)(=O)c1ccc2ncsc2c1`: the activity change, negative = inhibition in assay [1] (at 26 µM (top of the series)) is -14.4% (inactive). For `COc1ccc(S(=O)(=O)N(C)C[C@@H]2Oc3c(NC(=O)Nc4ccccc4)cccc3C(=O)N([C@H](C)CO)C[C@H]2C)cc1`, the AC50 in assay [2] was > 26 µM (inactive). Take `COc1ccc(S(=O)(=O)N(C)C[C@H]2Oc3c(NC(=O)Nc4cccc5ccccc45)cccc3C(=O)N([C@H](C)CO)C[C@@H]2C)cc1`: the activity change, negative = inhibition in assay [1] (at 26 µM (top of the series)) was -26.2% (inactive). The same measure, in the same setting: under `COc1ccc(S(=O)(=O)N(C)C[C@@H]2Oc3c(NS(=O)(=O)c4ccc(Cl)cc4)cccc3C(=O)N([C@@H](C)CO)C[C@H]2C)cc1` stands 4.24% (inactive). `Cc1ccc(S(=O)(=O)N(C)C[C@@H]2Oc3c(NC(=O)Nc4ccccc4)cccc3C(=O)N([C@H](C)CO)C[C@H]2C)cc1`: the activity change, negative = inhibition in assay [1] (at 26 µM (top of the series)) is -21% (inactive).

On to `C[C@@H]1CN([C@@H](C)CO)C(=O)c2cccc(NC(=O)Nc3cccc4ccccc34)c2O[C@H]1CN(C)S(=O)(=O)c1ccc2c(c1)oc(=O)n2C`, for which the activity change, negative = inhibition in assay [1] (at 26 µM (top of the series)) was 4.7% (inactive).

In the case of `COc1ccc(S(=O)(=O)N(C)C[C@@H]2Oc3c(NC(=O)c4ccncc4)cccc3C(=O)N([C@@H](C)CO)C[C@H]2C)cc1`, the activity change, negative = inhibition in assay [1] (at 26 µM (top of the series)) is 10% (inactive).

Regarding `COc1ccc(NC(=O)Nc2cccc3c2O[C@@H](CN(C)S(=O)(=O)c2ccc(OC)cc2)[C@H](C)CN([C@@H](C)CO)C3=O)cc1`, the activity change, negative = inhibition in assay [1] (at 26 µM (top of the series)) was -7.77% (inactive). `COc1ccc(S(=O)(=O)N(C)C[C@H]2Oc3c(NC(=O)Nc4cccc5ccccc45)cccc3C(=O)N([C@H](C)CO)C[C@H]2C)cc1`: the activity change, negative = inhibition in assay [1] (at 26 µM (top of the series)) was 0.786% (inactive). Regarding `COc1ccc(S(=O)(=O)N(C)C[C@@H]2Oc3c(NC(=O)Nc4cccc5ccccc45)cccc3C(=O)N([C@@H](C)CO)C[C@H]2C)cc1OC`, the activity change, negative = inhibition in assay [1] (at 26 µM (top of the series)) is 2.18% (inactive). Same read-out and setting: the value for `C[C@@H]1CN([C@@H](C)CO)C(=O)c2cccc(NC(=O)Nc3ccccc3)c2O[C@H]1CN(C)S(=O)(=O)c1ccc(F)cc1` was -5.13% (inactive). Still for that read-out and setting: under `COc1ccc(S(=O)(=O)Nc2cccc3c2O[C@@H](CN(C)S(=O)(=O)c2ccc(OC)cc2)[C@H](C)CN([C@@H](C)CO)C3=O)cc1` stands -6.55% (inactive); under `C[C@@H]1CN([C@@H](C)CO)C(=O)c2cccc(NC(=O)Nc3cccc4ccccc34)c2O[C@H]1CN(C)S(=O)(=O)c1ccc2c(c1)OCCCO2`, -19.2% (inactive). As to `COc1ccc(S(=O)(=O)N(C)C[C@@H]2Oc3c(NS(=O)(=O)c4ccccc4)cccc3C(=O)N([C@@H](C)CO)C[C@H]2C)cc1`, the activity change, negative = inhibition in assay [1] (at 26 µM (top of the series)) was 0.0255% (inactive).

In the case of `C[C@@H]1CN([C@@H](C)CO)C(=O)c2cccc(NC(=O)Nc3ccc(F)cc3)c2O[C@H]1CN(C)S(=O)(=O)c1ccc(F)cc1`, in assay [1] (at 26 µM (top of the series)), the activity change, negative = inhibition is -1.84% (inactive). On to `COc1ccc(S(=O)(=O)N(C)C[C@@H]2Oc3c(cccc3N(C)C)C(=O)N([C@@H](C)CO)C[C@H]2C)cc1`, for which the activity change, negative = inhibition in assay [1] (at 23.5 µM (top of the series)) was -2.44% (inactive). Regarding `COc1ccc(S(=O)(=O)N(C)C[C@@H]2Oc3c(NC(=O)C4CCCCC4)cccc3C(=O)N([C@@H](C)CO)C[C@H]2C)cc1`, the activity change, negative = inhibition in assay [1] (at 26 µM (top of the series)) is 1.58% (inactive). Turning to `C[C@@H]1CN([C@@H](C)CO)C(=O)c2cccc(NC(=O)Nc3cccc4ccccc34)c2O[C@H]1CN(C)S(=O)(=O)c1ccc2c(c1)OCCO2`, the AC50 in assay [2] was > 26 µM (inactive). Take `Cc1ccc(S(=O)(=O)N(C)C[C@@H]2Oc3c(NC(=O)Nc4ccccc4)cccc3C(=O)N([C@@H](C)CO)C[C@H]2C)cc1`: the activity change, negative = inhibition in assay [1] (at 26 µM (top of the series)) was -12.1% (inactive). The same measure, in the same setting: the value for `COc1ccc(S(=O)(=O)N(C)C[C@@H]2Oc3c(NS(=O)(=O)c4ccc(F)cc4)cccc3C(=O)N([C@@H](C)CO)C[C@H]2C)cc1` was -1.11% (inactive); that for `COc1ccc(S(=O)(=O)N(C)C[C@@H]2Oc3c(NC(=O)Nc4cccc5ccccc45)cccc3C(=O)N([C@H](C)CO)C[C@@H]2C)cc1` was -1.65% (inactive); that for `COc1ccc(S(=O)(=O)N(C)C[C@@H]2Oc3c(NC(=O)Nc4ccc5c(c4)OCO5)cccc3C(=O)N([C@@H](C)CO)C[C@H]2C)cc1` was -14.3% (inactive). Turning to `COc1ccc(S(=O)(=O)N(C)C[C@@H]2Oc3c(NS(=O)(=O)c4cn(C)cn4)cccc3C(=O)N([C@@H](C)CO)C[C@H]2C)cc1`, the activity change, negative = inhibition in assay [1] (at 26 µM (top of the series)) is 4.39% (inactive). Same read-out and setting: the value for `C[C@@H]1CN([C@@H](C)CO)C(=O)c2cccc(NC(=O)Nc3cccc4ccccc34)c2O[C@H]1CN(C)S(=O)(=O)c1ccc2c(c1)OCC2` was -32.4% (inactive); that for `C[C@@H]1CN([C@H](C)CO)C(=O)c2cccc(NC(=O)Nc3ccccc3)c2O[C@H]1CN(C)S(=O)(=O)c1ccc(F)cc1` was -13.8% (inactive).

For `COc1ccc(S(=O)(=O)N(C)C[C@@H]2Oc3c(NS(C)(=O)=O)cccc3C(=O)N([C@@H](C)CO)C[C@H]2C)cc1`, in assay [1] (at 26 µM (top of the series)), the activity change, negative = inhibition was -7.41% (inactive). On the same count and under the same terms, under `COc1ccc(S(=O)(=O)N(C)C[C@@H]2Oc3c(NC(=O)c4ccc(-c5nccs5)cc4)cccc3C(=O)N([C@@H](C)CO)C[C@H]2C)cc1` stands -0.0778% (inactive). In the case of `Cc1ccc(S(=O)(=O)N(C)C[C@@H]2Oc3c(NC(=O)Nc4ccc(F)cc4)cccc3C(=O)N([C@H](C)CO)C[C@H]2C)cc1`, the activity change, negative = inhibition in assay [1] (at 12 µM (top of the series)) was -0.835% (inactive). For `COc1ccc(S(=O)(=O)N(C)C[C@@H]2Oc3c(NC(=O)Nc4ccc(F)cc4)cccc3C(=O)N([C@@H](C)CO)C[C@H]2C)cc1`, the activity change, negative = inhibition in assay [1] (at 23.5 µM (top of the series)) was -9.52% (inactive). As for `COc1ccc(S(=O)(=O)N(C)C[C@@H]2Oc3c(NC(=O)Nc4ccccc4)cccc3C(=O)N([C@@H](C)CO)C[C@H]2C)cc1`, in assay [1] (at 26 µM (top of the series)), the activity change, negative = inhibition is -14.9% (inactive).

As to `COc1ccc(S(=O)(=O)N(C)C[C@@H]2Oc3c(NC(=O)C4CC4)cccc3C(=O)N([C@@H](C)CO)C[C@H]2C)cc1`, the activity change, negative = inhibition in assay [1] (at 23.5 µM (top of the series)) was 1.94% (inactive). For the compound `C[C@@H]1CN([C@@H](C)CO)C(=O)c2cccc(NC(=O)Nc3cccc4ccccc34)c2O[C@H]1CN(C)S(=O)(=O)c1cn(C)cn1`, the activity change, negative = inhibition in assay [1] (at 26 µM (top of the series)) was -2.87% (inactive). For `C[C@@H]1CN([C@H](C)CO)C(=O)c2cccc(NC(=O)Nc3ccc(F)cc3)c2O[C@H]1CN(C)S(=O)(=O)c1ccc(Cl)cc1`, the activity change, negative = inhibition in assay [1] (at 12 µM (top of the series)) is 1.53% (inactive). As for `COc1ccc(S(=O)(=O)N(C)C[C@@H]2Oc3c(NC(=O)Nc4ccc(F)cc4)cccc3C(=O)N([C@H](C)CO)C[C@H]2C)cc1`, the activity change, negative = inhibition in assay [1] (at 26 µM (top of the series)) was -19% (inactive). Still for that read-out and setting: under `COc1ccc(S(=O)(=O)N(C)C[C@@H]2Oc3c(NC(=O)Nc4c(C)noc4C)cccc3C(=O)N([C@@H](C)CO)C[C@H]2C)cc1` stands -3.17% (inactive); under `C[C@H]1CN([C@@H](C)CO)C(=O)c2cccc(NC(=O)NC3CCCCC3)c2O[C@@H]1CN(C)S(C)(=O)=O`, -3.58% (inactive); under `COc1ccc(S(=O)(=O)N(C)C[C@H]2Oc3c(NC(=O)Nc4cccc5ccccc45)cccc3C(=O)N([C@@H](C)CO)C[C@@H]2C)cc1`, -8.36% (inactive). The same measure, in the same setting: under `COc1ccc(S(=O)(=O)N(C)C[C@@H]2Oc3c(NC(=O)c4cc(C)nn4C)cccc3C(=O)N([C@@H](C)CO)C[C@H]2C)cc1` stands -1.39% (inactive). As for `COc1ccc(S(=O)(=O)N(C)C[C@@H]2Oc3c(NC(=O)c4cnccn4)cccc3C(=O)N([C@@H](C)CO)C[C@H]2C)cc1`, the activity change, negative = inhibition in assay [1] (at 26 µM (top of the series)) was 5.1% (inactive).

Take `C[C@@H]1CN([C@@H](C)CO)C(=O)c2cccc(NC(=O)Nc3cccc4ccccc34)c2O[C@H]1CN(C)S(=O)(=O)c1ccc2c(n1)N(C)CCO2`: the activity change, negative = inhibition in assay [1] (at 12 µM (top of the series)) is 1.75% (inactive).

For the compound `COc1ccc(S(=O)(=O)N(C)C[C@@H]2Oc3c(NC(=O)Nc4ccc(C(F)(F)F)cc4)cccc3C(=O)N([C@@H](C)CO)C[C@H]2C)cc1`, the activity change, negative = inhibition in assay [1] (at 26 µM (top of the series)) is -12% (inactive). On the same count and under the same terms, the value for `COc1ccc(S(=O)(=O)N(C)C[C@@H]2Oc3c(NC(=O)Nc4cccc5ccccc45)cccc3C(=O)N([C@@H](C)CO)C[C@@H]2C)cc1` was -6.51% (inactive).

In the case of `COc1ccc(S(=O)(=O)N(C)C[C@@H]2Oc3c(NC(=O)C4CCOCC4)cccc3C(=O)N([C@@H](C)CO)C[C@H]2C)cc1`, the activity change, negative = inhibition in assay [1] (at 23.5 µM (top of the series)) is 3.17% (inactive). `COc1ccc(S(=O)(=O)N(C)C[C@@H]2Oc3c(NC(=O)Nc4cccc5ccccc45)cccc3C(=O)N(C(C)C)C[C@H]2C)cc1`: in assay [1] (at 26 µM (top of the series)), the activity change, negative = inhibition is 12.7% (inactive). On the same count and under the same terms, under `COc1ccc(S(=O)(=O)N(C)C[C@@H]2Oc3c(NC(=O)NC(C)C)cccc3C(=O)N([C@@H](C)CO)C[C@H]2C)cc1` stands 6.79% (inactive). For `COc1ccc(S(=O)(=O)N(C)C[C@@H]2Oc3c(NS(=O)(=O)c4ccc(C)cc4)cccc3C(=O)N([C@@H](C)CO)C[C@H]2C)cc1`, the activity change, negative = inhibition in assay [1] (at 23.5 µM (top of the series)) is -10.1% (inactive).

Consider `C[C@@H]1CN([C@@H](C)CO)C(=O)c2cccc(NC(=O)Nc3ccccc3)c2O[C@H]1CN(C)S(=O)(=O)c1ccc(Cl)cc1`, for which, in assay [1] (at 26 µM (top of the series)), the activity change, negative = inhibition is -5.63% (inactive).

As for `C[C@@H]1CN([C@@H](C)CO)C(=O)c2cccc(NC(=O)Nc3cccc4ccccc34)c2O[C@H]1CN(C)S(C)(=O)=O`, in assay [1] (at 26 µM (top of the series)), the activity change, negative = inhibition was 0.629% (inactive). In the case of `C[C@@H]1CN([C@@H](C)CO)C(=O)c2cccc(NC(=O)Nc3cccc4ccccc34)c2O[C@H]1CN(C)C(=O)Nc1ccccc1`, in assay [1] (at 12 µM (top of the series)), the activity change, negative = inhibition is 11.5% (inactive).
